Measured values published in ChEMBL document CHEMBL1201862, “PubChem BioAssay data set” (2004).
The source made the active and inactive calls.

How the values were obtained:
[1] = HEp-2 cell cytotoxicity, dose response, cytotoxicity control for RSV inhibitor project, HTS (AID 2410); format: functional; settings: human respiratory syncytial virus
cells [2] = assay: cells
[3] = A Cell Based Secondary Assay To Explore Cytotoxicity of Compounds that Sensitize Mycobacterium Tuberculosis to Beta-Lactam Antibiotics.; format: functional
[4] = target: Polyadenylate-binding protein 1 (Homo sapiens, UniProt P11940); assay: PABP poly(A) RNA binding inhibitors, primary screen, biochemical, fluorescence polarization, uHTS (AID 2014)
Sequence of Polyadenylate-binding protein 1 (P11940 whole entry): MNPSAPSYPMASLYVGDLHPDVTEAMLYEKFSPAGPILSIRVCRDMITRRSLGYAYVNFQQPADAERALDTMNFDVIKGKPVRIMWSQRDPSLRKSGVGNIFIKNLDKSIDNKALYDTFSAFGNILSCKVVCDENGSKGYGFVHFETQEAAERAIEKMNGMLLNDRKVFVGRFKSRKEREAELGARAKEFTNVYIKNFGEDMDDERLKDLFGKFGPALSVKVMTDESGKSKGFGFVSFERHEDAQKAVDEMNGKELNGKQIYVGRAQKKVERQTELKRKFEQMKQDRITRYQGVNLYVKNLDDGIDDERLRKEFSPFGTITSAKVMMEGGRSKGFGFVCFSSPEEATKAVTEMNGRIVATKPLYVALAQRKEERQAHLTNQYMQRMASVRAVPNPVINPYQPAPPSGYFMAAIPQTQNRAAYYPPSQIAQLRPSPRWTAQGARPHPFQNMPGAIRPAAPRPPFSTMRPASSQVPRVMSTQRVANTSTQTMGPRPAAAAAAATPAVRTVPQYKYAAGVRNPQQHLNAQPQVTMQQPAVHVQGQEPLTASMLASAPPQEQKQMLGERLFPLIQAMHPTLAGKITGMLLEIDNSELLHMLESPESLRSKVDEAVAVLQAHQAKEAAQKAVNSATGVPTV

[5] = target: DNA dC->dU-editing enzyme APOBEC-3G (Homo sapiens, UniProt Q9HC16); format: functional;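 note: Dose-response counterscreen measuring inhibition of APOBEC3G DNA deaminase activity, run while confirming APOBEC3A inhibitors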
[6] = target: Eukaryotic translation initiation factor 4H (Homo sapiens, UniProt Q15056); assay: human eIF4H binding inhibitors, primary screen, translation initiation inhibitor project, biochemical, uHTS, fluorescence polarization (AID 2012)
[7] = target: DNA dC->dU-editing enzyme APOBEC-3A (Homo sapiens, UniProt P31941); assay: Dose Response confirmation of small molecule APOBEC3A DNA Deaminase Inhibitors via a fluorescence-based single-stranded DNA deaminase assay. [Related pubchem assays (depositor defined):AID493011, AID493024]; format: functional
Sequence of DNA dC->dU-editing enzyme APOBEC-3A (P31941 whole entry, the tested form may be a part): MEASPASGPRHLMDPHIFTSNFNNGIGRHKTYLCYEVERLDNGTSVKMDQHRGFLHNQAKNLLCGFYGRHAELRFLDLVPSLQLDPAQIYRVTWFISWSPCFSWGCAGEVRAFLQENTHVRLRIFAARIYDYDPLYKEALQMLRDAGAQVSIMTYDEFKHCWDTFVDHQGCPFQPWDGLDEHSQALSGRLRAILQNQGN

[8] = HIV-1 Env-mediated cell fusion inhibitors, dose response, CCR5-tropic Env (AID 2279); format: functional
[9] = target: FAD-linked sulfhydryl oxidase ALR (Homo sapiens, UniProt P55789); assay: inhibitors of human ALR sulfhydryl oxidase, dose response, biochemical, H2O2 detection, luminescence, cherry-pick (AID 493248)
Sequence of FAD-linked sulfhydryl oxidase ALR (P55789 whole entry): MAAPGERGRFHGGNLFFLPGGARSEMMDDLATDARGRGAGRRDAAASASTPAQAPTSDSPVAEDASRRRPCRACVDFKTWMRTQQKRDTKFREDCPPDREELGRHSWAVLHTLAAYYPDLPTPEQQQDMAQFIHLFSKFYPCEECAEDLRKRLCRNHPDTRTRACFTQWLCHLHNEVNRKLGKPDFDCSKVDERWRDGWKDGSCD

Genome polyprotein = Genome polyprotein (dengue virus type 2, UniProt P29990); assay: Dengue-2 NS5 methyltransferase inhibitors, primary screen, biochemical, confirmation dose response (AID 588689); format: functional
Sequence of Genome polyprotein (P29990 2492-3391 limits assumed): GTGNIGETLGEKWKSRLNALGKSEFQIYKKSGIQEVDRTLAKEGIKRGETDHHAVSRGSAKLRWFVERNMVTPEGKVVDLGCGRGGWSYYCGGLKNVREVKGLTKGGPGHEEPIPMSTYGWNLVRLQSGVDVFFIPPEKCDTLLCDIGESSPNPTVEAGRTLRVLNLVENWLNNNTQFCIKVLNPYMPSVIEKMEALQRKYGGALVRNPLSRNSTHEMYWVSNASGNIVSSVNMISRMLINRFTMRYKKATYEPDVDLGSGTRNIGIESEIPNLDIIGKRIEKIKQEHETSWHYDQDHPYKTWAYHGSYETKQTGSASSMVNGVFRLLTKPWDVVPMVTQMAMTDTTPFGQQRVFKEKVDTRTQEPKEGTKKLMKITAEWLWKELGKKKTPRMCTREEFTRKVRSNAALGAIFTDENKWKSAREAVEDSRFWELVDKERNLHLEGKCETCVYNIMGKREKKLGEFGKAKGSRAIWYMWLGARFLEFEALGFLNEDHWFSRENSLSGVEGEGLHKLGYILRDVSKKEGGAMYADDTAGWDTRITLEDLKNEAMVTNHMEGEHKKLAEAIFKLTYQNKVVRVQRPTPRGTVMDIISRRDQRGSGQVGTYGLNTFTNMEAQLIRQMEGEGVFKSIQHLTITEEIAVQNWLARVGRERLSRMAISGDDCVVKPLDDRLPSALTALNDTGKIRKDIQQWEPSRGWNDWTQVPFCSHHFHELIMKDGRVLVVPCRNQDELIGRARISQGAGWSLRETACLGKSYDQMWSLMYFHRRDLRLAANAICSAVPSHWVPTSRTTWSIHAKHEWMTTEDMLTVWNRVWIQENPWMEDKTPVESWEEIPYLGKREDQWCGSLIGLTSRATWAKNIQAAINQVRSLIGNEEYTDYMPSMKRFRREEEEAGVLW

cells [10] = format: functional, cell-based
cells [11] = format: functional, cell-based; remark: listed apart in the source
HeLa [12] = assay: HeLa cell cytotoxicity, dose response, cytotoxicity control, 24 h, cherry-picked samples (AID 504726); format: functional, cell-based; settings: Homo sapiens;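 note: potency for cytotoxicity as loss of luminescence signal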
[13] = target: Luciferin 4-monooxygenase (Photinus pyralis, UniProt P08659); assay: firefly luciferase enzyme inhibitors, dose response, biochemical, luminescence (AID 1891)
Sequence of Luciferin 4-monooxygenase (P08659 whole entry): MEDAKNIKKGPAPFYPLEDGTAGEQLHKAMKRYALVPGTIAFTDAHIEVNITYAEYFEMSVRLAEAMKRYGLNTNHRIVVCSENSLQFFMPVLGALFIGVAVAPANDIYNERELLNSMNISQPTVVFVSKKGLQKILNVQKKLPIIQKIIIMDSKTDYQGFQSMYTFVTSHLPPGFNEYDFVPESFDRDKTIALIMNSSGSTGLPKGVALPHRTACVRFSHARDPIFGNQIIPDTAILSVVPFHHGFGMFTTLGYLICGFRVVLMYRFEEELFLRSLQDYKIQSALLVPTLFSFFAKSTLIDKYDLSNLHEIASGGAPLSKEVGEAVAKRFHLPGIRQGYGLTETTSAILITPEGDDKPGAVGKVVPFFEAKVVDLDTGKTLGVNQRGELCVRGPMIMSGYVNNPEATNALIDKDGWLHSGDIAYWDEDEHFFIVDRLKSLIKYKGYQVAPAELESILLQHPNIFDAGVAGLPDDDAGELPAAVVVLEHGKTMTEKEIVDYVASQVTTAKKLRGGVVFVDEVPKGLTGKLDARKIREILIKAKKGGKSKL

[14] = target: Cyclin-dependent kinase 5/CDK5 activator 1 (Homo sapiens, UniProt Q00535); assay: CDK5/p35 kinase inhibitors, dose response, biochemical, cherry-picked samples, set 2 (AID 504545)
Sequence of Cyclin-dependent kinase 5/CDK5 activator 1 (Q00535 whole entry): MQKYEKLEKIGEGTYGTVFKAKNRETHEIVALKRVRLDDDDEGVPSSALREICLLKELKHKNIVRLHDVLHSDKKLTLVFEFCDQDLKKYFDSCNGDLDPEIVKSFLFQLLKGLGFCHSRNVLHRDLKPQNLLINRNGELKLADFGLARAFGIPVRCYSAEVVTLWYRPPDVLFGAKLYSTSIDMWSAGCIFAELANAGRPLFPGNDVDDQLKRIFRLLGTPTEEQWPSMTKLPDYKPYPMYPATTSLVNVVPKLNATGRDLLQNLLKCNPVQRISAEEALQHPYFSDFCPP
Sequence of Cyclin-dependent kinase 5/CDK5 activator 1 (Q15078 whole entry, further chain): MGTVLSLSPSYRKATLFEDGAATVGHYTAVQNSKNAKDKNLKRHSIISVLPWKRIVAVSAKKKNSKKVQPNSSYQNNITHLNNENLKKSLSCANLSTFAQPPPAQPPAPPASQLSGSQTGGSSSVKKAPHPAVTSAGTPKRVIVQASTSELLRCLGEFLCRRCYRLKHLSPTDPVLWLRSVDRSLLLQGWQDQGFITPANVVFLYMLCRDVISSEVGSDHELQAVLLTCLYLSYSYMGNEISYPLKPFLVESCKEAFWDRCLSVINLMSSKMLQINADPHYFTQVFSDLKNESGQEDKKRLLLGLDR

[15] = target: T1, Zinc finger protein mex-5 (Caenorhabditis elegans, UniProt Q9XUB2); assay: MEX-5/TCR-2 RNA interaction inhibitors, dose response, biochemical, C. elegans, fluorescence polarization (AID 1960)
T1 sequence (Q9XUB2 whole entry): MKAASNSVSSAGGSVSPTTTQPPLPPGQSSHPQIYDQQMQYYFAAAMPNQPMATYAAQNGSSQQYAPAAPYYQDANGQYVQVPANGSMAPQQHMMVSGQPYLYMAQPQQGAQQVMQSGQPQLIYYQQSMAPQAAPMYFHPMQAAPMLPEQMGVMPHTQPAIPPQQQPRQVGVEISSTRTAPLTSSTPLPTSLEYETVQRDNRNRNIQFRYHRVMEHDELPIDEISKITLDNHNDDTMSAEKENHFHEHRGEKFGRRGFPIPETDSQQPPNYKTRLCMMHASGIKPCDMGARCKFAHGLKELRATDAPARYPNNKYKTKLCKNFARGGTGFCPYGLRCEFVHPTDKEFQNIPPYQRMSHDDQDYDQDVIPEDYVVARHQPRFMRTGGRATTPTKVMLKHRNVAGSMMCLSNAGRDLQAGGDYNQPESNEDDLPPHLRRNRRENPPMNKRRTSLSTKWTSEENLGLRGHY

[16] = inhibitors of intracellular T. cruzi replication, confirmation, NIH3T3 host cells, beta-gal luminescence (AID 2044); format: functional, cell-based;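 note: intracellular parasites grown in NIH/3T3 mouse fibroblasts as host cells; luminescent beta-galactosidase reporter signal from transgenic T. cruzi replicating inside host cells; inhibitors lower the luminescence signal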
[17] = cytotoxicity toward NIH3T3 fibroblasts, dose response, counter-screen, cell-based, ATP luminescence, mouse fibroblasts (AID 2010); format: functional;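 note: cells exposed to compound for about 90 hours before reading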
HeLa [18] = assay: HeLa cell cytotoxicity, dose response, cytotoxicity control for MITF activator project, CellTiter-Glo luminescence, cherry-pick samples (AID 540259); format: functional, cell-based; settings: Homo sapiens
[19] = target: T2, RNA-binding protein pos-1 (Caenorhabditis elegans, UniProt G5EF15); assay: inhibitors of POS-1/mex-3 RNA binding, dose response, biochemical, fluorescence polarization (AID 1964);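 note: purified POS-1 fused to maltose binding protein made in E. coli; potency of compounds blocking POS-1 binding to fluorescent RNA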
T2 sequence (G5EF15 whole entry): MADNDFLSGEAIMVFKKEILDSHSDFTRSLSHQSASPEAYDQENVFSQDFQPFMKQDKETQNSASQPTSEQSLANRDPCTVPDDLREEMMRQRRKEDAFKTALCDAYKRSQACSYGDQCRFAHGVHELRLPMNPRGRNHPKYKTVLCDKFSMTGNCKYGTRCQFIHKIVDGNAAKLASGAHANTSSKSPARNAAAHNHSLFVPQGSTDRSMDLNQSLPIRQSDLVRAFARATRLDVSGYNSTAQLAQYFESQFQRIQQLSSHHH

[20] = M. tuberculosis H37Rv growth inhibitors, H37Rv strain (AID 1626); format: functional
Vero [21] = assay: cells; format: functional, cell-based; settings: Chlorocebus sabaeus
Cytochrome P450 2D6 = Cytochrome P450 2D6 (Homo sapiens, UniProt P10635);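 note: CYP2D6 member of a cytochrome P450 panel assay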
Sequence of Cytochrome P450 2D6 (P10635 whole entry): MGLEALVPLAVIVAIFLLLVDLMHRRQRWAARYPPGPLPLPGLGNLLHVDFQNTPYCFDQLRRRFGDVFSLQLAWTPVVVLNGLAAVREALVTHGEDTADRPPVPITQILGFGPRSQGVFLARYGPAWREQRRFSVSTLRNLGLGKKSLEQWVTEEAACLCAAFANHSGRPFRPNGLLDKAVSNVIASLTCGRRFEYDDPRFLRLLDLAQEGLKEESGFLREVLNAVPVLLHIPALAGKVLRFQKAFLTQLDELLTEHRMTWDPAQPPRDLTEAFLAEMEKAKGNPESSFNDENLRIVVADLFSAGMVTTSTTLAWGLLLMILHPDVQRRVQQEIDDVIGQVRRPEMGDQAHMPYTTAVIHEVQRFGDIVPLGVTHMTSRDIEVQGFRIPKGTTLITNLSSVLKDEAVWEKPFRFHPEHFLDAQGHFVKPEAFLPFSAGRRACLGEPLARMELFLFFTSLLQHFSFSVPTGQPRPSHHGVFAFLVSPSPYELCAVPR

[22] = target: Induced myeloid leukemia cell differentiation protein Mcl-1 (Homo sapiens, UniProt Q07820); format: functional
Sequence of Induced myeloid leukemia cell differentiation protein Mcl-1 (Q07820 whole entry): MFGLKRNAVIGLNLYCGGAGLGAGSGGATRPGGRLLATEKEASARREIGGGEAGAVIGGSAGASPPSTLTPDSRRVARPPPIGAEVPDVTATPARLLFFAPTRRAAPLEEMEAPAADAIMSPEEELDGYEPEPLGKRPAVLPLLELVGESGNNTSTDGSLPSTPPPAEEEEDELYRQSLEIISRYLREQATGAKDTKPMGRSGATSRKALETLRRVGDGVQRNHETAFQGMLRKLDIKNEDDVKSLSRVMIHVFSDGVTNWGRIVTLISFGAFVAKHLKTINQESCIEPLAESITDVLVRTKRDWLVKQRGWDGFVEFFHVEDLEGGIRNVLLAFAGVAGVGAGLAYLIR

HeLa [23] = assay: Cytotoxicity counterscreen assay for transcriptional activators of heat shock protein 70 (Hsp70). [Related pubchem assays: 1203, 1252 ]; format: functional; settings: Homo sapiens
Cytochrome P450 2C19 = Cytochrome P450 2C19 (Homo sapiens, UniProt P33261); assay: Cytochrome panel assay with activity outcomes. Panel member name: p450-cyp2c19 Compounds with AC50 equal or less than 10 uM are considered active; format: functional; settings: read-out: AC50
Sequence of Cytochrome P450 2C19 (P33261 whole entry): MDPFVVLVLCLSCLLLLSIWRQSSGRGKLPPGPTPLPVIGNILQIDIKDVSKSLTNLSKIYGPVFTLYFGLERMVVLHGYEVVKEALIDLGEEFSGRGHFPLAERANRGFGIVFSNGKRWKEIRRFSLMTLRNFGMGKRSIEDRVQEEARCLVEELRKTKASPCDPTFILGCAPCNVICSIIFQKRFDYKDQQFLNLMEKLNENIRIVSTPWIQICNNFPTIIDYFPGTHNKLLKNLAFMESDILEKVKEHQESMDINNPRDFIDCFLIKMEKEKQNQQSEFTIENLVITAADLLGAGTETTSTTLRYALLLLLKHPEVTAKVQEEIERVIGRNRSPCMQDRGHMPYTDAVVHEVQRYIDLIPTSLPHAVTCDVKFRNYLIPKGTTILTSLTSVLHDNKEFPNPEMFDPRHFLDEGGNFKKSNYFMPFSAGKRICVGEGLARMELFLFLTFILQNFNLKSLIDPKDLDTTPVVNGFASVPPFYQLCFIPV

Vero [24] = assay: cells; format: functional; settings: Chlorocebus sabaeus
Cytochrome P450 3A4 = Cytochrome P450 3A4 (Homo sapiens, UniProt P08684);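 note: CYP3A4 tested as one member of a cytochrome P450 panel screen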
Sequence of Cytochrome P450 3A4 (P08684 whole entry): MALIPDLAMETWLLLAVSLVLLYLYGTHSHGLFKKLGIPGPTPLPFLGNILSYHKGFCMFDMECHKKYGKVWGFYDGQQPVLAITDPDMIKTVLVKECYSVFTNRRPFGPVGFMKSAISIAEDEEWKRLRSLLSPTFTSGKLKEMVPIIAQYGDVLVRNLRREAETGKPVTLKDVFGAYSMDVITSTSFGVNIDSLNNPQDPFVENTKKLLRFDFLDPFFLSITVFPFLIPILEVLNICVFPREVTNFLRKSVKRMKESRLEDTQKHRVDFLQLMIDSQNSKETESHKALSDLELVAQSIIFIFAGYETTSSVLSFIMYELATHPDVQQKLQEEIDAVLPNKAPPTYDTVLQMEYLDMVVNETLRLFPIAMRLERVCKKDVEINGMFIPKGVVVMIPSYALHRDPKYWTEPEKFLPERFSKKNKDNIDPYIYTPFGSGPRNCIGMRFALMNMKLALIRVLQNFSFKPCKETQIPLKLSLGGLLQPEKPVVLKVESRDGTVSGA

Hexokinase HKDC1 = target: T3, Hexokinase HKDC1 (Homo sapiens, UniProt Q2TB90); assay: HKDC1 hexokinase inhibitors, dose response, biochemical, W721R variant (AID 504729); format: functional
T3 sequence (Q2TB90 whole entry): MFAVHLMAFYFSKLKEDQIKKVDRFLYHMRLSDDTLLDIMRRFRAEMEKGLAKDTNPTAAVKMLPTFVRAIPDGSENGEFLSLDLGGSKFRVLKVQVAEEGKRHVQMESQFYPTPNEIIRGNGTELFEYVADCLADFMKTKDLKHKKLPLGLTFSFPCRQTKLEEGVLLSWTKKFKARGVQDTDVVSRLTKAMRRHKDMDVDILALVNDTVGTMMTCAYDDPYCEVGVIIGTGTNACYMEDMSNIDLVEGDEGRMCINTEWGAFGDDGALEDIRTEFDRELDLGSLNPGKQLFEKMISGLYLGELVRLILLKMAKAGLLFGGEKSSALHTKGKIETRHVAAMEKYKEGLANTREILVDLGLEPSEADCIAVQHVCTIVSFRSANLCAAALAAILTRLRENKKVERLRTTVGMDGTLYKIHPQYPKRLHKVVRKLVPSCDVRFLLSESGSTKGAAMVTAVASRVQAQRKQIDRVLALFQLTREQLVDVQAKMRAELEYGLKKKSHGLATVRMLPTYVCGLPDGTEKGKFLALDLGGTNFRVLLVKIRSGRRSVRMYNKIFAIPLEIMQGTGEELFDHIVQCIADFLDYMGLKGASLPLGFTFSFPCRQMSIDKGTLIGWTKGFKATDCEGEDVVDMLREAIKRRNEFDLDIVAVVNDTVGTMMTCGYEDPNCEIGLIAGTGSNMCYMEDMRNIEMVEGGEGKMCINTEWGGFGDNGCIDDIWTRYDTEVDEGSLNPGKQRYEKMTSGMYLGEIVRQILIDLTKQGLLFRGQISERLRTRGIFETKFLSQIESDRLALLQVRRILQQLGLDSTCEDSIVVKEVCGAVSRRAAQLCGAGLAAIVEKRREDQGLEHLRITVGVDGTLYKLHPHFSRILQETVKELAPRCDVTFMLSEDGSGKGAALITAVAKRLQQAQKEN

Bcl-2-related protein A1 = target: T4, Bcl-2-related protein A1 (Mus musculus, UniProt Q07440); format: functional;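 note: confirmatory dose–response counterscreen on Bfl-1, used to check hits from a UBC13 polyubiquitin inhibitor campaign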
T4 sequence (Q07440 whole entry): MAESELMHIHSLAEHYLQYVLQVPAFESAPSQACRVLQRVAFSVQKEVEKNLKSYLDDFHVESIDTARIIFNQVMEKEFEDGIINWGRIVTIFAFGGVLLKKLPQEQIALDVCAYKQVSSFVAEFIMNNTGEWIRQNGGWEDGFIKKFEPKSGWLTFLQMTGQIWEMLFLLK

[25] = target: T5, Ubiquitin-conjugating enzyme E2 N (Homo sapiens, UniProt P61088); format: functional
T5 sequence (P61088 whole entry): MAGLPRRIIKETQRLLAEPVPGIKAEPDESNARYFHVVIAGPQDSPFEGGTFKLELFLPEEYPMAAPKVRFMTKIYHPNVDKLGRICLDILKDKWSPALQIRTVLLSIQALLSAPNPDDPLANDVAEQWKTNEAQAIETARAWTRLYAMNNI

cells [26] = assay: cells; remark: listed apart in the source
[27] = target: T5, Ubiquitin-conjugating enzyme E2 N; format: functional; remark: listed apart in the source
[28] = Luminescence Cell-Based Dose Confirmation HTS to Identify Inhibitors of Platelet Dense Granule Release. [Related pubchem assays: 1663 (Primary HTS), 1678 (Summary of Project)]; format: functional
[29] = target: T6, Rac GTPase-activating protein 1 (Homo sapiens, UniProt Q9H0H5); assay: MgcRacGAP GTPase-activating activity inhibitors, confirmation, biochemical, ADP Hunter fluorescence, primary and confirmatory (AID 624330); format: functional
T6 sequence (Q9H0H5 whole entry): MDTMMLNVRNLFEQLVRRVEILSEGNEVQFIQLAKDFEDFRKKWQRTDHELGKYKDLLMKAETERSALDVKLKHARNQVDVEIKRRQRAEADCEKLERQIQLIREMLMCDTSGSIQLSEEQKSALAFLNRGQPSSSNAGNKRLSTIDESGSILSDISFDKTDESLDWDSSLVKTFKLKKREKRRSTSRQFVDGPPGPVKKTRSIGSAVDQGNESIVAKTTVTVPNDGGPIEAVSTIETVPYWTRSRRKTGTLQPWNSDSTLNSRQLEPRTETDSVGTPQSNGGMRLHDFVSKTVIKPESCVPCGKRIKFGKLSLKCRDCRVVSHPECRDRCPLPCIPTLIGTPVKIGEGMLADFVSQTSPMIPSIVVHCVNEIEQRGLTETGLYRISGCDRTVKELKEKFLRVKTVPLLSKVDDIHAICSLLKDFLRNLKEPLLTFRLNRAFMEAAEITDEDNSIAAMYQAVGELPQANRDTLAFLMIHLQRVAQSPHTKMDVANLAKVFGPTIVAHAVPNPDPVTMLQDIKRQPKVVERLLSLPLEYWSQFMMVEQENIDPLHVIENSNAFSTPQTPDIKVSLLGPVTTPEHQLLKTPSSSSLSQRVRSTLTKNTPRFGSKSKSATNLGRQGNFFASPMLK

## CCC(C)NC(=O)c1cc2cc3ccc(OC)cc3nc2s1 (centres undefined)
[1]
  CC50: 44.8 µM (active)
Cells [2]
  IC50: 10.8 µM (active)

## CN(C)c1ccc(/C=N/NC(=O)c2cc(-c3ccc4c(c3)OCO4)[nH]n2)cc1
[3]
  CC50: 30.2 µM (active)

## C[N+]12CCCCC1[C@@H](CO)CCC2 (some centres undefined)
[4]
  IC50: 5.51 µM (active)
[5]
  IC50: 4.19 µM (active)
[6]
  IC50: > 100 µM (inactive)
[7]
  IC50: 2.79 µM (active)

## COC(=O)c1sc(-c2ccc(C(C)(C)C)cc2)cc1NC(=O)c1ccccc1C(=O)O
[8]
  IC50: 49.9 µM (active)
[9]
  AC50: 0.087 µM (active)
Genome polyprotein
  IC50: 35.9 µM (active)

## CCC(=O)NC(=S)Nc1ccc(NC(=O)c2cccc([N+](=O)[O-])c2C)cc1
[3]
  CC50: > 40 µM (active)
Cells [10]
  EC50: > 350 µM (not active)
Cells [11]
  EC50: > 350 µM (not active)

## O=C(c1cnn2c(-c3ccccc3)cc(-c3ccccc3)nc12)N1CCN(Cc2ccccc2)CC1
HeLa [12]
  AC50: 62.6 µM (active)
[1]
  CC50: 15.5 µM (active)

## COc1cccc(C(=O)ON=C(N)c2ccccn2)c1
[13]
  EC50: 2.07 µM (active)
[14]
  AC50: 12.9 µM (active)

## CN1CCc2c(sc(NC(=O)c3ccc4ccccc4c3)c2C(N)=O)C1
[15]
  EC50: > 300 µM (inconclusive)
[16]
  EC50: 3.25 µM (active)
[17]
  EC50: 9.24 µM (active)
HeLa [12]
  AC50: 35.3 µM (active)
HeLa [18]
  AC50: 24.5 µM (active)
[19]
  EC50: > 300 µM (not active)

## O=C(NCc1ccco1)c1cc2n(n1)C(C(F)(F)F)CC(c1ccc(Cl)c(Cl)c1)N2 (centres undefined)
[20]
  IC50: > 100 µM (active)
[16]
  EC50: 3.86 µM (active)
[17]
  EC50: 7.67 µM (active)

## CC1=NOC(=O)/C1=C\c1ccc(-c2ccc(Cl)cc2Cl)o1
Vero [21]
  IC50: > 25 µM (active)
Cytochrome P450 2D6
  AC50: 14.1 µM (inconclusive)
[22]
  IC50: 1.7 µM (active)
HeLa [23]
  CC50: > 3.67 µM (not active)
Cytochrome P450 2C19
  AC50: 7.94 µM (inconclusive)
Vero [24]
  CC50: > 25 µM (active)
Cytochrome P450 3A4
  AC50: 17.8 µM (inconclusive)
Hexokinase HKDC1
  IC50: 20.6 µM (inactive)

## CN(C)CCCN(C(=O)c1ccc(S(=O)(=O)N2CCCCCC2)cc1)c1nc2cc3c(cc2s1)OCCO3
Bcl-2-related protein A1
  IC50: > 20 µM (inactive)
[16]
  EC50: < 0.1 µM (active)
[17]
  EC50: > 60 µM (not active)
[25]
  IC50: 4.63 µM (active)
Cells [26]
  EC50: 0.201 µM (active)
[27]
  IC50: 4.41 µM (active)

## COc1cc(OC)c2cc[nH]c2c1
[20]
  IC50: > 100 µM (active)
[28]
  EC50: > 112 µM (not active)
[13]
  EC50: > 112 µM (not active)
[29]
  IC50: 108 µM (active)

## COCCNC(=O)c1cc(-c2ccc(-c3ccccc3)cc2)nc2ccccc12
Vero [21]
  IC50: 7.44 µM (active)
[1]
  CC50: 15.2 µM (active)
Vero [24]
  CC50: 19.2 µM (active)
Cells [2]
  IC50: 4.81 µM (active)

## CC(C)n1cnc2c(Nc3ccc(C(=O)O)cc3)nc(Cl)nc21
[14]
  AC50: 22.2 µM (active)
